Data reported in publication PMC4488150, “Structure-Based Optimization and Biological Evaluation of Pancreatic Lipase Inhibitors as Novel Potential Antiobesity Agents” (Natural Products and Bioprospecting, 2015).
“Also recorded” adds a separate entry of the source.

Experiments:
[1] = tested on: HFD-induced C57BL/6 J obese mice; assay: High-fat diet-induced obese mice (diet-induced obesity); type: in vivo; conditions: for cholesterol (CHO) level / triglyceride (TG) level: blood after final dose
Description: Male C57BL/6 J mice were obtained from Beijing HFK Bioscience Co., Ltd. (Certificate No. SCXK 2014-0004), housed in a temperature- and humidity-controlled room with a 12-hour light/dark cycle, and allowed free access to solid food and tap water for one week prior to the experiments. All of the procedures were performed in accordance with the Institute Ethical Committee for Experimental Animal Use of the Yunnan Province and the Kunming Institute of Botany.
The kits used to determine the triglyceride (TG) and cholesterol (CHO) levels were obtained from the Zhongsheng Beikong Bioengineering Institute.
Three-week-old C57BL/6 J male mice were fed a normal diet for 1 week for acclimatization. Randomly selected mice were fed a normal diet or a 45 % fat diet. After 4 months, the body weights of the mice in the obese group were 20 % higher than those in the control group. These obese mice were randomly divided into the following three groups: the model (45 % fat diet), orlistat (45 % fat diet + orlistat) and Compound groups (45 % fat diet + compound C1). The drugs (50 mg/kg orlistat or 100 mg/kg compound C1) were intragastrically administered for 1 month. During this period, the mice were weighed once every 3 days. Following administration of the final dose, blood samples were collected via the orbital vein after ethyl ether exposure, and epididymal fat was isolated. TG and CHO levels were measured using kits. The ratio of epididymal fat to body weight represents the amount of white adipose tissue (WAT) of each mouse (normalized to the body weight).
Student’s t test was used for comparisons between groups, as indicated in Fig. 2. #p < 0.05, ## or **p < 0.01.

[2] = tested on: HFD-induced C57BL/6 J obese mice; assay: as above; type: in vivo; conditions: up to 400 mg/kg, data not shown
[3] = target: T1, Porcine pancreatic lipase (Sus scrofa, UniProt P00591); assay: In vitro pancreatic lipase inhibitory activity (p-nitrophenyl butyrate hydrolysis); type: biochemical; conditions: for IC50: read-out: IC50 against pancreatic lipase; for pancreatic lipase inhibitory activity compared with compound A1: compared with compound A1 (best inhibitor of the first series)
T1 sequence (P00591 1-450): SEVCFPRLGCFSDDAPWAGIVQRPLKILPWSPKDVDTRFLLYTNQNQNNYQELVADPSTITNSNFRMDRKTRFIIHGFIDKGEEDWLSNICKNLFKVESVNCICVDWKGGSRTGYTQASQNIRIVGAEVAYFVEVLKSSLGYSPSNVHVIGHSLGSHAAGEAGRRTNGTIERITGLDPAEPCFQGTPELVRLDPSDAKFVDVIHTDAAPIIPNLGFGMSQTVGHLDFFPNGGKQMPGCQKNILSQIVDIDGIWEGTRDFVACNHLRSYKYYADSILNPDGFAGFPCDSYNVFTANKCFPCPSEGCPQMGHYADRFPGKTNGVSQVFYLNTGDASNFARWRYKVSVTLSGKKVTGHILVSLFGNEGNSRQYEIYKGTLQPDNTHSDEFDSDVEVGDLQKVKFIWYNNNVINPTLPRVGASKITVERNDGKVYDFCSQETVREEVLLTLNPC
Description: Compounds A1–A54 were then evaluated for their bioactivity to inhibit pancreatic lipase. Each test was performed in triplicate, and the IC50 values were calculated based on the amount of inhibitor required to produce 50 % inhibition compared with the DMSO vehicle control.
Porcine pancreatic lipase was used to evaluate the inhibitory activity of the monascus pigment derivatives. p-Nitrophenyl butyrate ([…]) was used as the substrate. First, an enzyme-buffer solution was prepared by adding 30 μL of lipase solution (in 10 mM morpholinepropanesulfonic acid (MOPS) and 1 mM EDTA, pH 6.8) to 850 μL of Tris buffer (100 mM Tris–HCl and 5 mM CaCl2, pH 7.0). Pigment solutions were prepared by dissolving each pigment in a mixture (1:1) of ethanol and distilled water. Subsequently, 100 μL of the pigment solution was mixed with 880 μL of the enzyme-buffer solution. Following incubation of the enzyme-pigment mixture for 15 min at 37 °C, 20 μL of the substrate solution (10 mM p-NPB in dimethyl formamide) was added. Enzymatic reactions were conducted for 15 min at 37 °C. The hydrolysis of p-NPB to p-nitrophenol was monitored at 400 nm using a spectrophotometer. One unit of the enzyme was defined as the amount required to liberate 1 μmol of p-nitrophenol under standard assay conditions.

[4] = compound C1 100 mg/kg, 100 mg/kg

## CCCCCCCCN(CCCCCCC)C(=O)C1=C[C@@]2(CC=C(C)C)C(=O)O[C@H]2C1 [Compound C1, (1R,5S)-N-heptyl-1-(3-methylbut-2-en-1-yl)-N-octyl-7-oxo-6-oxabicyclo[3.2.0]hept-2-ene-3-carboxamide]
[1]; C1 100 mg/kg vs orlistat 50 mg/kg
  in vivo activity compared with orlistat: lower activity than that of orlistat
[1]; compound C1 100 mg/kg, 33 days, intragastric, vs HFD model group, 100 mg/kg
  body weight: gradually decreased; also recorded: weight loss; also recorded: significantly low; also recorded: significantly lower
[1]; compound C1 100 mg/kg, 33 days, intragastric, 100 mg/kg
  HFD-induced obesity: significantly decreased
[1]; [4]
  cholesterol (CHO) level: significantly decreased
  triglyceride (TG) level: significantly decreased; also recorded: significantly reduced
[1]; compound C1 100 mg/kg, one month, 100 mg/kg
  fat weight (epididymal white adipose tissue, normalized to body weight): gradually decreased; also recorded: significantly decreased
[2]
  toxicity or adverse behavioral effects: without toxicity or adverse behavioral effects
[3]
  IC50: 14 nM
[3]; relative to vibralactone
  pancreatic lipase inhibitory activity, fold higher than that of vibralactone: more than 3000 fold

## CCCCCC[C@@H](OC(=O)[C@](OC)(c1ccccc1)C(F)(F)F)C1=C[C@@]2(CC=C(C)C)C(=O)O[C@H]2C1 [Compound B1, (R)-(R)-1-((1R,5S)-1-(3-methylbut-2-en-1-yl)-7-oxo-6-oxabicyclo[3.2.0]hept-2-en-3-yl)heptyl-3,3,3-trifluoro-2-methoxy-2-phenylpropanoate]
[3]
  IC50: 30 nM

## CCCCCCCCN(CCCCCCCC)C(=O)C1=C[C@@]2(CC=C(C)C)C(=O)O[C@H]2C1 [Compound C2, (1R,5S)-1-(3-methylbut-2-en-1-yl)-N,N-dioctyl-7-oxo-6-oxabicyclo[3.2.0]hept-2-ene-3-carboxamide]
[3]
  pancreatic lipase inhibitory activity compared with compound A1: higher inhibitory activities than compound A1

## CCCCCCCCCCC[C@@H](C[C@@H]1OC(=O)[C@H]1CCCCCC)OC(=O)[C@H](CC(C)C)NC=O [orlistat, reference compound]
[1]; orlistat 50 mg/kg
  cholesterol (CHO) level: significantly decreased
  triglyceride (TG) level: significantly decreased
[1]; orlistat 50 mg/kg, one month
  fat weight (epididymal white adipose tissue, normalized to body weight): gradually decreased; also recorded: significantly decreased
[1]; orlistat 50 mg/kg, one month, intragastric
  body weight: gradually decreased

## CC(C)=CC[C@@]12C=C(CO)C[C@@H]1OC2=O [vibralactone, reference compound]
[3]
  IC50: 47300 nM

## CC(C)=CC[C@@]12C=C(COC(=O)CCCCCc3ccccc3)C[C@@H]1OC2=O [Compound A1, ((1R,5S)-1-(3-methylbut-2-en-1-yl)-7-oxo-6-oxabicyclo[3.2.0]hept-2-en-3-yl)methyl-6-phenylhexanoate]
[3]
  IC50: 83 nM

## CCCCCCCN(CCCCCCC)C(=O)C1=C[C@@]2(CC=C(C)C)C(=O)O[C@H]2C1 [Compound C3, (1R,5S)-N,N-diheptyl-1-(3-methylbut-2-en-1-yl)-7-oxo-6-oxabicyclo[3.2.0]hept-2-ene-3-carboxamide]
[3]
  pancreatic lipase inhibitory activity compared with compound A1: higher inhibitory activities than compound A1
